Converted amounts (≈) assume the structure as drawn.
Test: physchem
Conditions: thermodynamic from solid
Method: To increase the solubility of the low-solubility active ingredients, 40 ml of a 15% polymer solution (in DI water) were prepared. […] If the added active ingredient dissolved, further active ingredient was added, to supersaturation, followed by stirring for a further 72 hours. The resulting suspension was filtered through a 0.45 μm membrane filter and the dissolved fraction of active ingredient was determined by means of UV/Vis spectroscopy. The same method was also carried for the active ingredients alone, in order to determine the solubility of the pure active ingredient and to be able to determine the improvement through salt formation. For comparison, the solubility in 0.1 normal HCl as well was ascertained, representing the solubility of the hydrochloride salt of the corresponding base.

SMILES: NC(N)=Nc1nc(CSCCC(N)=NS(N)(=O)=O)cs1 [Famotidine, famotidine]
- solubility thermodynamic at 72 h (simulated gastric fluid): 32100 µg/mL (≈ 95100 µM)
- solubility thermodynamic at 72 h (water): 1000 µg/mL (≈ 2960 µM)

SMILES: CN(C)C(=O)C(CCN1CCC(O)(c2ccc(Cl)cc2)CC1)(c1ccccc1)c1ccccc1 [Loperamide, loperamide]
- solubility thermodynamic at 72 h (simulated gastric fluid): 200 µg/mL (≈ 419 µM)
- solubility thermodynamic at 72 h (water): 70 µg/mL (≈ 147 µM)

From US20150038668A1, “Branched Polyesters Based On Citric Acid, Their Preparation And Use” (BASF SE, priority 2010, published 2015)
